Paper PMC8004712, “MRAP2 Interaction with Melanocortin-4 Receptor in SnakeHead (Channa argus)” (Biomolecules, 2021)

What was measured:
[1] = system: MC4R; settings: ref [36],[59],[65]; cited from earlier work
Description: (decreased cell surface expression), or zebrafish and topmouth culter (increased cell surface expression). Therefore, MRAP2 has a differential effect on MC4R membrane expression in different species. […] In topmouth culter, two isoforms of MRAP2 are also sho ...

[2] = system: goldfish; settings: intracerebroventricular, ref [25]; cited from earlier work
Description: MC4R has been investigated in several non-mammalian vertebrates including ectotherm fish, such as goldfish, rainbow trout, spotted scat, grass carp, ricefield eel, orange-spotted grouper, and topmouth culter. Similar to mammalian MC4Rs, teleost MC4R is also involved in regulating food intake and maintaining energy balance. […] Meanwhile, intracerebroventricular administration of M ...

[3] = system: caMC4R; experiment: cAMP assay, caMC4R; assay type: cell-based, Channa argus (Northern snakehead); settings: HEK293T cells
[4] = system: brain gnih, sgnrh and cgnrh; ovarian genes; settings: black rockfish, ref not given, cited from earlier work
Description: In addition to energy homeostasis, MC4R also regulates reproduction and sexual function. Compared with mammals, the evidence of MC4R in regulating teleost reproduction is relatively scarce. In swordtail fish, nonfunctional Y-linked mc4r copies in larger males act as dominant-negative mutants and delay puberty onset. In spotted scat, MC4R stimulates gnrh expression in the hypothalamus, thereby modulating pituitary FSH and LH synthesis.

[5] = molecular target: caMC4R; experiment: Ligand binding assay, caMC4R (displacement of ^125I-NDP-MSH); parameters: species or system Channa argus (Northern snakehead); settings: HEK293T cells, 48 h after transfection, competition with ^125I-NDP-MSH, 1-h incubation, DMEM/BSA, gamma counter, mean ± SEM of at least three independent experiments

Compound: ACTH
- ligand sensitivity of MC4R to ACTH in the presence of MRAP2 [1]: increasing ligand sensitivity to ACTH

Compound: melanotan II
- food intake [2]: inhibits food intake

Compound: HS024
- food intake [2]: stimulates food intake

Compound: CSCC[C@H](NC(=O)[C@H](CCCNC(=N)N)NC(=O)[C@H](Cc1ccc(O)cc1)NC(=O)[C@@H]1CCCN1C(=O)CNC(=O)[C@H](CCC(=O)O)NC(=O)[C@H](CC(=O)O)NC(=O)[C@H](CCCCN)NC(=O)[C@H](CCCCN)NC(=O)[C@H](CCC(=O)O)NC(=O)[C@H](C)N)C(=O)N[C@@H](CCC(=O)O)C(=O)N[C@@H](Cc1c[nH]cn1)C(=O)N[C@@H](Cc1ccccc1)C(=O)N[C@@H](CCCNC(=N)N)C(=O)N[C@@H](Cc1c[nH]c2ccccc12)C(=O)NCC(=O)N[C@@H](CO)C(=O)N1CCC[C@H]1C(=O)N1CCC[C@H]1C(=O)N[C@@H](CCCCN)C(=O)N[C@@H](CC(=O)O)C(=O)O [β-MSH]
- maximal response at caMC4R in comparison with hMC4R ([3]; caMC4R vs hMC4R, cAMP): higher maximal responses than hMC4R
- Rmax ([3]; caMC4R, % of hMC4R, cAMP by RIA, 1 h at 37 °C, maximal response, mean ± SEM of at least three independent experiments): 163.9 ± 89.36%
- EC50 ([3]; caMC4R, cAMP by RIA, 0.5 mM isobutylmethylxanthine, 1 h at 37 °C, 10^−12 to 10^−6 M NDP-MSH and ACTH (1–24), 10^−11 to 10^−5 M α-MSH and β-MSH, mean ± SEM of at least three independent experiments): 2.49 ± 0.81 nM
- expression of brain gnih, sgnrh and cgnrh ([4]; in vitro): increase brain gnih and decrease sgnrh and cgnrh expression in vitro
- expression of ovarian genes [4]: affect expression of some ovarian genes
- IC50 [5]: 329 ± 120 nM
